Here are results for 36 molecules from patent US8541588B2, “Sulfonamide derivatives” (Pfizer Limited, priority 2009, dated 2013).

Counter-ions that a name gives are not always drawn. Bounds are passed on as bounds.

The target in one experiment is T1, Nav1.7 (or SCN9A) channel; HEK cells stably transfected with hSCN9A (Homo sapiens, UniProt Q15858).
T1 construct: expressed in transfected cells
T1 sequence (Q15858 whole entry): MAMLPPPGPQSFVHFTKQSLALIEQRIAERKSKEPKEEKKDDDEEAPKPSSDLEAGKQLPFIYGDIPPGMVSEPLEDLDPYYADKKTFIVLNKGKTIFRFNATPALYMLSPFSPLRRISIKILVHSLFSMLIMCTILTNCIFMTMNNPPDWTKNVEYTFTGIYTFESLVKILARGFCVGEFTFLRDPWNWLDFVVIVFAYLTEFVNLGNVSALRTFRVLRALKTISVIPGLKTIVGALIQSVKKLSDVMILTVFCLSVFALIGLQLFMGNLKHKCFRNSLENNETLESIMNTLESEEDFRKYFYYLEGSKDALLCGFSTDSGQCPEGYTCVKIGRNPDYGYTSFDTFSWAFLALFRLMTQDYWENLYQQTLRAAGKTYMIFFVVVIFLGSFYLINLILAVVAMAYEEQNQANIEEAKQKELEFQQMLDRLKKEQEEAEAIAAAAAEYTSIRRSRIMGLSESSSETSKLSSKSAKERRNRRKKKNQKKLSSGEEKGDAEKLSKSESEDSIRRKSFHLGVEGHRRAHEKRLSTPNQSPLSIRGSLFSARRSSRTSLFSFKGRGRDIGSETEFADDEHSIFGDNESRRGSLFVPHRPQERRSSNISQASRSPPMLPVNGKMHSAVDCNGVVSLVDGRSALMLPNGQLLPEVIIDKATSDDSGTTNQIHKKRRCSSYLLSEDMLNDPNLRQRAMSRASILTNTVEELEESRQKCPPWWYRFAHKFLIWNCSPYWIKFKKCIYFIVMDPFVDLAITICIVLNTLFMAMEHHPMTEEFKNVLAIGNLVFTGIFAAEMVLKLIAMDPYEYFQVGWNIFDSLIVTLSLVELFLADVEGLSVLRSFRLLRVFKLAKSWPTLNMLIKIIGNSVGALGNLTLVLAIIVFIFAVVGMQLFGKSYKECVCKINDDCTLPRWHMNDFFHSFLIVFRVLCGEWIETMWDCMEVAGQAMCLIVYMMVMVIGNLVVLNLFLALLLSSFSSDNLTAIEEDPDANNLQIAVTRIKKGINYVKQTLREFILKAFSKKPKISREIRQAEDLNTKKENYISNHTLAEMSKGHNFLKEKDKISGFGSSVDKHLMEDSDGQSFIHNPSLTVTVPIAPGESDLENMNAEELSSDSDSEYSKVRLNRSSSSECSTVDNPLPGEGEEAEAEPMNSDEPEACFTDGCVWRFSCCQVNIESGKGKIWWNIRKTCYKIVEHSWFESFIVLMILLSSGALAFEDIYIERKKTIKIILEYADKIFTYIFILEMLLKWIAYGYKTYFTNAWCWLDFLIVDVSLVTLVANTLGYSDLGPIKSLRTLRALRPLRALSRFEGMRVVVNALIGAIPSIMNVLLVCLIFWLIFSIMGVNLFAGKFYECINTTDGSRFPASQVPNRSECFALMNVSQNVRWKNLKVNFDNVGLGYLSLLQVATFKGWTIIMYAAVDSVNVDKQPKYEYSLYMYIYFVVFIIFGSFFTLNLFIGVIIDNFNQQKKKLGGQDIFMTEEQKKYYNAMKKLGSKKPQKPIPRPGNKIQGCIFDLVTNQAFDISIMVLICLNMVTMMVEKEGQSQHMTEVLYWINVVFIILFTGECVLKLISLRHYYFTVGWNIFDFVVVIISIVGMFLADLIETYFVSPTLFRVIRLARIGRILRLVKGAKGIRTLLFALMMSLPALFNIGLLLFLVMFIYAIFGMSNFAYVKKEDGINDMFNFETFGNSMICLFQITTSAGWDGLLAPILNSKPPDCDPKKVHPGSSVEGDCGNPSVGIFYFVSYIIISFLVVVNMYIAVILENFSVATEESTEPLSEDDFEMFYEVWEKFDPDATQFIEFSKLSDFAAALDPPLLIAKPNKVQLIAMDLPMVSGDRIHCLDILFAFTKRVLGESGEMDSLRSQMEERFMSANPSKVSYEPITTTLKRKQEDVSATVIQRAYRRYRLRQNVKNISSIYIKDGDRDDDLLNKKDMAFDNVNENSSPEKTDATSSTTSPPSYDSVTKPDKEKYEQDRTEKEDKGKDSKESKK
Description: Nav1.7 block, PatchXpress 7000 automated whole-cell voltage clamp, estimated IC50 (EIC50). It is filed as cell-based. The note with it: PatchXpress platform; hSCN9A HEK cells held at V1/2 of inactivation; estimated IC50.
For orientation: IC50 means the midpoint of a concentration-inhibition curve. As for `Cc1nn(Cc2ccccc2)cc1-c1ccccc1Oc1ccc(S(=O)(=O)Nc2ncns2)cc1F` [Example 252, 4-(2-(1-benzyl-3-methyl-1H-pyrazol-4-yl)phenoxy)-3-fluoro-N-(1,2,4-thiadiazol-5-yl)benzenesulfonamide], the concentration for half-maximal inhibition (IC50) is 24500 nM.
Still for that read-out and setting: the same measure for `O=S(=O)(Nc1ncns1)c1ccc(Oc2cc(C(F)(F)F)nn2-c2cc(F)ccc2F)c(F)c1` [Example 253, 4-[2-(2,5-difluoro-phenyl)-5-trifluoromethyl-2H-pyrazol-3-yloxy]-3-fluoro-N-1,2,4-thiadiazol-5-yl-benzenesulfonamide]: 630 nM.
On the same count and under the same terms, for `O=S(=O)(Nc1ncns1)c1ccc(Oc2cc(C(F)(F)F)nn2-c2ccccc2)c(F)c1` [Example 254, 3-fluoro-4-(2-phenyl-5-trifluoromethyl-2H-pyrazol-3-yloxy)-N-1,2,4-thiadiazol-5-yl-benzenesulfonamide] the value was 340 nM.
In the case of `O=S(=O)(Nc1ncns1)c1ccc(Oc2cc(C(F)(F)F)nn2-c2ccccc2F)c(F)c1` [Example 255, 3-fluoro-4-[2-(2-fluoro-phenyl)-5-trifluoromethyl-2H-pyrazol-3-yloxy]-N-1,2,4-thiadiazol-5-yl-benzenesulfonamide], the half-maximal inhibitory concentration (IC50) is 490 nM.
Same read-out and setting: for `Cc1cc(S(=O)(=O)Nc2ncns2)ccc1Oc1ccccc1-c1ccccc1` [Example 256, 4-(biphenyl-2-yloxy)-3-methyl-N-1,2,4-thiadiazol-5-ylbenzenesulfonamide] the value was 220 nM; for `Cc1cc(S(=O)(=O)Nc2ncns2)ccc1Oc1ccn(Cc2ccc(Cl)cc2)n1` [Example 257, 4-{[1-(4-chlorobenzyl)-1H-pyrazol-3-yl]oxy}-3-methyl-N-1,2,4-thiadiazol-5-ylbenzenesulfonamide], 2200 nM; for `Cc1cc(S(=O)(=O)Nc2nccs2)ccc1Oc1ccccc1-c1ccccc1` [Example 258, 4-(biphenyl-2-yloxy)-3-methyl-N-1,3-thiazol-2-ylbenzenesulfonamide], 1020 nM.
As to `COc1cc(S(=O)(=O)Nc2ncns2)ccc1Oc1ccn(Cc2ccc(Cl)cc2)n1` [Example 259, 4-{[1-(4-chlorobenzyl)-1H-pyrazol-3-yl]oxy}-3-methoxy-N-1,2,4-thiadiazol-5-ylbenzenesulfonamide], the IC50 is 16500 nM.
Take `O=S(=O)(Nc1ncns1)c1ccc(Oc2ccccc2-c2ccccc2)cc1C(F)(F)F` [Example 260, 4-(biphenyl-2-yloxy)-N-1,2,4-thiadiazol-5-yl-2-(trifluoromethyl)benzenesulfonamide]: the half-inhibitory concentration (IC50) is 15900 nM.
For the molecule `Cc1cc(Oc2ccccc2-c2ccccc2)ccc1S(=O)(=O)Nc1ncns1` [Example 261, 4-(biphenyl-2-yloxy)-2-methyl-N-1,2,4-thiadiazol-5-ylbenzenesulfonamide], the IC50 is 470 nM.
In the case of `COc1cc(S(=O)(=O)Nc2ncns2)ccc1Oc1ccccc1-c1ccccc1` [Example 262, 4-(biphenyl-2-yloxy)-3-methoxy-N-1,2,4-thiadiazol-5-ylbenzenesulfonamide], the concentration for half-maximal inhibition (IC50) was 1320 nM.
Still for that read-out and setting: for `O=S(=O)(Nc1ncns1)c1ccc(Oc2ccccc2-c2ccccc2)cc1Cl` [Example 263, 4-(biphenyl-2-yloxy)-2-chloro-N-1,2,4-thiadiazol-5-ylbenzenesulfonamide] the value was 1440 nM; for `O=S(=O)(Nc1ncns1)c1cc(F)c(Oc2ccccc2-c2ccccc2)c(F)c1` [Example 264, 4-(biphenyl-2-yloxy)-3,5-difluoro-N-1,2,4-thiadiazol-5-ylbenzenesulfonamide], 2380 nM; for `O=S(=O)(Nc1ncns1)c1cc(F)c(Oc2ccn(Cc3ccc(Cl)cc3)n2)c(F)c1` [Example 265, 4-{[1-(4-chlorobenzyl)-1H-pyrazol-3-yl]oxy}-3,5-difluoro-N-1,2,4-thiadiazol-5-ylbenzenesulfonamide], 38900 nM.
Take `O=S(=O)(Nc1ncns1)c1cc(F)c(Oc2ccccc2-c2ccccc2)cc1F` [Example 266, 4-(biphenyl-2-yloxy)-2,5-difluoro-N-1,2,4-thiadiazol-5-ylbenzenesulfonamide]: the half-inhibitory concentration (IC50) was 100 nM.
In the case of `O=S(=O)(Nc1ncns1)c1cc(F)c(Oc2ccccc2-c2ccccc2)cc1Cl` [Example 267, 4-(biphenyl-2-yloxy)-2-chloro-5-fluoro-N-1,2,4-thiadiazol-5-ylbenzenesulfonamide], the IC50 was 190 nM.
For `N#Cc1cc(Oc2ccccc2-c2ccccc2)ccc1S(=O)(=O)Nc1ncns1` [Example 268, 4-(biphenyl-2-yloxy)-2-cyano-N-1,2,4-thiadiazol-5-ylbenzenesulfonamide], the IC50 was 3060 nM.
On the same count and under the same terms, the same measure for `O=S(=O)(Nc1ncns1)c1ccc(Oc2ccccc2-c2ccccc2)c(F)c1F` [Example 269, 4-(biphenyl-2-yloxy)-2,3-difluoro-N-1,2,4-thiadiazol-5-ylbenzenesulfonamide]: 480 nM; for `O=S(=O)(Nc1ncns1)c1cc(Cl)c(Oc2ccccc2-c2ccccc2)cc1F` [Example 270, 4-(biphenyl-2-yloxy)-5-chloro-2-fluoro-N-1,2,4-thiadiazol-5-ylbenzenesulfonamide]: 30 nM.
For the molecule `O=S(=O)(Nc1cscn1)c1ccc(Oc2ccccc2-c2ccccc2)c(F)c1` [Example 271, 4-(biphenyl-2-yloxy)-3-fluoro-N-thiazol-4-yl-benzenesulfonamide], the IC50 is 1150 nM.
Consider `Cn1nccc1-c1cc(Cl)ccc1Oc1ccc(S(=O)(=O)Nc2cscn2)cc1F` [Example 272, 4-[4-chloro-2-(2-methyl-2H-pyrazol-3-yl)-phenoxy]-3-fluoro-N-thiazol-4-yl-benzenesulfonamide], for which the IC50 is 810 nM.
Same read-out and setting: the same measure for `O=S(=O)(Nc1cscn1)c1ccc(Oc2ccc(-c3ccccc3)cc2)c(F)c1` [Example 273, 4-(biphenyl-4-yloxy)-3-fluoro-N-thiazol-4-yl-benzenesulfonamide]: 2170 nM.
On to `O=S(=O)(Nc1cscn1)c1ccc(Oc2cc(C(F)(F)F)nn2-c2ccccc2)c(F)c1` [Example 274, 3-fluoro-4-(2-phenyl-5-trifluoromethyl-2H-pyrazol-3-yloxy)-N-thiazol-4-yl-benzenesulfonamide], for which the 50% inhibitory concentration (IC50) was greater than 10000 nM.
On the same count and under the same terms, the same measure for `Cn1nccc1-c1cc(Cl)ccc1Oc1ccc(S(=O)(=O)Nc2ncc(F)s2)cc1F` [Example 275, 4-[4-chloro-2-(2-methyl-2H-pyrazol-3-yl)-phenoxy]-3-fluoro-N-(5-fluoro-thiazol-2-yl)-benzenesulfonamide]: 70 nM; for `O=S(=O)(Nc1nccs1)c1ccc(Oc2ccccc2-c2ccccc2)cc1` [Example 276, 4-(biphenyl-2-yloxy)-N-thiazol-2-yl-benzenesulfonamide]: 550 nM; for `Cc1cc(Oc2ccc(S(=O)(=O)Nc3nccs3)cc2)n(-c2ccccc2)n1` [Example 277, 4-(5-methyl-2-phenyl-2H-pyrazol-3-yloxy)-N-thiazol-2-yl-benzenesulfonamide]: 1110 nM.
Still for that read-out and setting: the same measure for `O=S(=O)(Nc1nccs1)c1ccc(Oc2ccccc2-c2ccccc2)nc1` [Example 278, 6-(biphenyl-2-yloxy)-pyridine-3-sulfonic acid thiazol-2-ylamide]: 2660 nM; for `CC(C)(C)n1nc(C(F)(F)F)cc1-c1ccc(Oc2ccc(S(=O)(=O)Nc3nccs3)cc2C#N)cc1` [Example 279, 4-[4-(2-tertbutyl-5-trifluoromethyl-2H-pyrazol-3-yl)-phenoxy]-3-cyano-N-thiazol-2-yl-benzenesulfonamide]: 70 nM; for `CCn1nc(C(F)(F)F)cc1-c1ccc(Oc2ccc(S(=O)(=O)Nc3nccs3)cc2C#N)cc1` [Example 280, 3-cyano-4-[4-(2-ethyl-5-trifluoromethyl-2H-pyrazol-3-yl)-phenoxy]-N-thiazol-2-yl-benzenesulfonamide]: 90 nM.
Same read-out and setting: for `CC(C)(C)n1nc(C(F)(F)F)cc1-c1ccc(Oc2ccc(S(=O)(=O)Nc3ncc(F)s3)cc2C#N)cc1` [Example 281, 4-(4-(1-tert-butyl-3-(trifluoromethyl)-1H-pyrazol-5-yl)phenoxy)-3-cyano-N-(5-fluorothiazol-2-yl)benzenesulfonamide] the value was 120 nM; for `Cn1nc(C(F)(F)F)cc1-c1ccc(Oc2ccc(S(=O)(=O)Nc3nccs3)cc2C#N)cc1` [Example 282, 3-cyano-4-[4-(2-methyl-5-trifluoromethyl-2H-pyrazol-3-yl)-phenoxy]-N-thiazol-2-yl-benzenesulfonamide], 180 nM.

Staying with this experiment, now noted: estimated IC50; hSCN9A HEK cells, PatchXpress platform; Examples 283-814.
Turning to `CC(C)n1cc(-c2cc(Cl)ccc2Oc2ccc(S(=O)(=O)Nc3ncns3)cc2C#N)cn1` [Example 283, 4-[4-chloro-2-(1-isopropyl-1H-pyrazol-4-yl)phenoxy]-3-cyano-N-1,2,4-thiadiazol-5-ylbenzenesulfonamide], the 50% inhibitory concentration (IC50) was 580 nM.
On the same count and under the same terms, for `N#Cc1cncc(-c2cc(C(F)(F)F)ccc2Oc2ccc(S(=O)(=O)Nc3ncns3)cc2C#N)c1` [Example 284, 3-cyano-4-[2-(5-cyanopyridin-3-yl)-4-(trifluoromethyl)phenoxy]-N-1,2,4-thiadiazol-5-ylbenzenesulfonamide] the value was 1600 nM.
On the same count and under the same terms, for `CC(C)(C)n1nccc1-c1cc(F)ccc1Oc1ccc(S(=O)(=O)Nc2ncns2)cc1C#N` [Example 285, 4-[2-(1-tert-butyl-1H-pyrazol-5-yl)-4-fluorophenoxy]-3-cyano-N-1,2,4-thiadiazol-5-ylbenzenesulfonamide] the value was 620 nM.
Consider `Cn1ccc(-c2cc(Cl)ccc2Oc2ccc(S(=O)(=O)Nc3ncns3)cc2C#N)n1` [Example 286, 4-[4-chloro-2-(1-methyl-1H-pyrazol-3-yl)phenoxy]-3-cyano-N-1,2,4-thiadiazol-5-ylbenzenesulfonamide], for which the concentration for half-maximal inhibition (IC50) is 530 nM.
Regarding `N#Cc1cc(S(=O)(=O)Nc2ncns2)ccc1Oc1ccc(-n2cc(COC(=O)C(F)(F)F)cn2)cc1` [Example 287, [1-(4-{2-cyano-4-[(1,2,4-thiadiazol-5-ylamino)sulfonyl]phenoxy}phenyl)-1H-pyrazol-4-yl]methyl trifluoroacetate], the concentration for half-maximal inhibition (IC50) was greater than 1000 nM.
